Results as given in US6710052B2, “Pyrimidine compounds” (AstraZeneca, priority 2000, dated 2004).

How the values were obtained:
CDK4/Cyclin D1 = target: T1, CDK4/Cyclin D1 (Homo sapiens, UniProt P11802); test: CDK4 Inhibition Assay (Scintillation Proximity Assay, GST-Retinoblastoma substrate); assay type: biochemical; conditions: in vitro kinase assay; read-out: CDK4 inhibitory activity IC50
T1 construct: made in house; host or cells: Sf21 insect cells, baculovirus co-infection (pVL1393); the GST-Rb substrate was made in E. coli BL21 (DE3) pLysS
Method: The compounds were tested in an in vitro kinase assay in 96 well format using Scintillation Proximity Assay (SPA—obtained from Amersham) for measuring incorporation of [γ-33-P]-Adenosine Triphosphate into a test substrate (GST-Retinoblastoma). In each well was placed the compound to be tested (diluted in DMSO and water to correct concentrations) and in control wells either p 16 as an inhibitor control or DMSO as a positive control.
Approximately 0.51 μl of CDK4/Cyclin D1 partially-purified enzyme (amount dependent on enzyme activity) diluted in 25 μl incubation buffer was added to each well then 20 μl of GST-Rb/ATP/ATP33 mixture (containing 0.5 μg GST-Rb and 0.2 μM ATP and 0.14 μCi [γ-33-P]-Adenosine Triphosphate), and the resulting mixture shaken gently, then incubated at room temperature for 60 minutes. […]
The plates were sealed with Topseal-S plate sealers, left for two hours then spun at 2500 rpm, 1124× g., for 5 minutes. The plates were read on a Topcount for 30 seconds per well. […]
E. coli paste was resuspended in 10 ml/g of NETN buffer (50 mM Tris pH 7.5, 120 mM NaCl, 1 mM EDTA, 0.5%v/v NP-40, 1 mM PMSF, 1 ug/ml leupeptin, 1 ug/ml aprotinin and 1 ug/ml pepstatin) and sonicated for 2×45 seconds per 100 ml homogenate. […] The final product was analysed by Sodium Dodeca Sulfate (SDS) PAGE (Polyacrylamide gel) using 8-16% Tris-Glycine gels (Novex, San Diego, USA). […]

[1] = target: T2, human Focal Adhesion Kinase (FAK) (Homo sapiens, UniProt Q05397); test: FAK3 Kinase Inhibition Assay; assay type: biochemical; conditions: in vitro enzyme assay; read-out: FAK inhibitory activity IC50
T2 construct: FAK (full length human cDNA described by Andre et al); made in house; host or cells: Sf21 insect cells, recombinant baculovirus (pFastbac 1)
Description: FAK3 Kinase Inhibition Assay
This assay determines the ability of a test compound to inhibit tyrosine kinase activity of human Focal Adhesion Kinase (FAK).
DNA encoding FAK is obtained by total gene synthesis (Edwards M, International Biotechnology Lab 5(3), 19-25, 1987) or by cloning. These are then expressed in a suitable expression system to obtain polypeptide with tyrosine kinase activity.
Active FAK protein has been previously expressed in a baculovirus system using a similar N-terminal 6-histidine tag (Protein Expression And Purification, 1996, 7: 12-18). The human FAK cDNA was cloned into the baculovirus transplacement vector, pFastbac 1 (Life Technologies), and the recombinant construct was co-transfected into insect cells (for example Spodoptera frugiperda 21(Sf21)) with viral DNA to prepare recombinant baculovirus (details of the methods for the assembly of recombinant DNA molecules and the preparation and use of recombinant baculovirus can be found in standard texts for example Sambrook et al, 1989, Molecular cloning—A Laboratory Manual, 2nd edition, Cold Spring Harbour Laboratory Press and O'Reilly et al, 1992, Baculovirus Expression Vectors—A Laboratory Manual, W. H. Freeman and Co, New York. Details specific to the use of the pFastbac (‘Bac to Bac’) system are provided in Anderson et al., 1995, FOCUS (Life Technologies Bulletin Magazine), 17, p53.) […]

T1 sequence (P11802 whole entry): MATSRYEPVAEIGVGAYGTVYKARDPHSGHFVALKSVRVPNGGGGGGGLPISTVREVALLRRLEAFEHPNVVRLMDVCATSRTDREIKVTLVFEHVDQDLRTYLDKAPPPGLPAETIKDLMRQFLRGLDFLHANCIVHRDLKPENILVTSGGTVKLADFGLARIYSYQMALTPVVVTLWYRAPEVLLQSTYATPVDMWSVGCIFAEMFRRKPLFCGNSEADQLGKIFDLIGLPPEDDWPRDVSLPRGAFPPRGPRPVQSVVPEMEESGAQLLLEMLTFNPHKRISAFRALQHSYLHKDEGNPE
T1 sequence (P24385 whole entry partner): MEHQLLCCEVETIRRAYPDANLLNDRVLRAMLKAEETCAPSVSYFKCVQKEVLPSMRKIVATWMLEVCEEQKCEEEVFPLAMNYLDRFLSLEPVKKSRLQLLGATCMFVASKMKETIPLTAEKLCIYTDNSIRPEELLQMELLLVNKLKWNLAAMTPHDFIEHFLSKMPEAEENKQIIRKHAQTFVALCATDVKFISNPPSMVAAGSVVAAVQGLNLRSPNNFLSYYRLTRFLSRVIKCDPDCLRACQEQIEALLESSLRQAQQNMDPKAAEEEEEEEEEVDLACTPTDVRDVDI
T2 sequence (Q05397 whole entry): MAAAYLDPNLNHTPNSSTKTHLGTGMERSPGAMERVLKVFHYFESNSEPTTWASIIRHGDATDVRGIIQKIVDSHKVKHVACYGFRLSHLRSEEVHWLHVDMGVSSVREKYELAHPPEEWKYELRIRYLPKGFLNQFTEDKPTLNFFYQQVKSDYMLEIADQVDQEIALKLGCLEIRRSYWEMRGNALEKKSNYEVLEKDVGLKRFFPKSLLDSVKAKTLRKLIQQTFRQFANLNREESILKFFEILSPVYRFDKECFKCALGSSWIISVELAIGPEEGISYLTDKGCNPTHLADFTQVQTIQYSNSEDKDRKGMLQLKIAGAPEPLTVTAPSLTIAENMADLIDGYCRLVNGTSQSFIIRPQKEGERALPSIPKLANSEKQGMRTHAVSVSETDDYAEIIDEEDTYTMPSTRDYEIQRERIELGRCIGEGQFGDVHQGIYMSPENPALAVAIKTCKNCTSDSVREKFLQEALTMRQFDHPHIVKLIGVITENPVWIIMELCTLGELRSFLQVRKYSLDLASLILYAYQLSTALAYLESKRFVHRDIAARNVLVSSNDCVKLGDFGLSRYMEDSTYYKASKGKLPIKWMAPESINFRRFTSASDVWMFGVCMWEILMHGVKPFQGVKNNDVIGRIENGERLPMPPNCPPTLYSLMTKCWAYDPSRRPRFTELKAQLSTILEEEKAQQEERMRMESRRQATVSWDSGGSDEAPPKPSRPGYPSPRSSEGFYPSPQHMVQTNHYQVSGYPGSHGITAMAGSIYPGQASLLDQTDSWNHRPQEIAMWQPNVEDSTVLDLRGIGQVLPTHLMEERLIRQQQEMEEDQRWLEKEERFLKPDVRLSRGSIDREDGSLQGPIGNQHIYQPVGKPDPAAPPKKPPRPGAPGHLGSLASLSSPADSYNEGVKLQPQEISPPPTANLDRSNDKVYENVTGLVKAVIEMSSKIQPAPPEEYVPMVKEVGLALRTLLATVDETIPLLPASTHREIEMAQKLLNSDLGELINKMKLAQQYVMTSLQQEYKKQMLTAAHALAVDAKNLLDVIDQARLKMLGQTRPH

IC50 (CDK4/Cyclin D1) | IC50 [1] | SMILES
896 nM |  | COc1ccc(Oc2nc(Nc3ccc(OCC(O)CNC(C)C)cc3)ncc2F)cc1 (centres unmarked) [Example 13]
 | 366 nM | CN(C)CC(O)COc1ccc(Nc2ncc(Br)c(Sc3ccccc3)n2)cc1 (centres unmarked) [Example 14, 5-Bromo-2-{4-[2-hydroxy-3-(N,N-dimethylamino)propoxy]anilino}-4-(phenylthio)pyrimidine]
